Test results: paper PMC7251097, “Aspartate/asparagine-β-hydroxylase: a high-throughput mass spectrometric assay for discovery of small molecule inhibitors” (Scientific Reports, 2020)
Values joined by “and” are separate entries in the source; they are usually repeats but may differ in a detail not shown here. Equal entries are not always repeated. Structures can show the parent of a compound that is named as a salt. Where two headings read alike, the source gives them in different places.

Target: T1, His6-AspH315–758 (human aspartate/asparagine-β-hydroxylase, AspH) (Homo sapiens, UniProt Q12797)
T1 construct: N-Terminally His6-tagged human AspH315–758 (His6-AspH315–758) was produced in E. coli BL21 (DE3) cells; made in house; host or cells: E. coli BL21 (DE3), pET-28a(+) vector
T1 sequence (Q12797 315-758): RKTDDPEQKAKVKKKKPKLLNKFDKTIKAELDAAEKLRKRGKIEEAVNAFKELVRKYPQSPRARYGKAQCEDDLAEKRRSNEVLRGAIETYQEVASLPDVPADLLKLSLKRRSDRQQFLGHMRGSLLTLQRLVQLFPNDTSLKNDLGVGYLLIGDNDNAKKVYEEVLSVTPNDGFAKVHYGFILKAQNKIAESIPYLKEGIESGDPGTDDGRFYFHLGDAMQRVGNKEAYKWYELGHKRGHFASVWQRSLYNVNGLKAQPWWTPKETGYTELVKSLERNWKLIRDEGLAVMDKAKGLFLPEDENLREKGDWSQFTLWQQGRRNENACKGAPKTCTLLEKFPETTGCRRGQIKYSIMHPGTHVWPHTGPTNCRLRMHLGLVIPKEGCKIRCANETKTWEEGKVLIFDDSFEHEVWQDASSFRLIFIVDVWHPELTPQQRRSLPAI
Assay: SPE-MS AspH inhibition assay (LOPAC screen at fixed 20 μM and IC50 dose-response), hydroxylation of cyclic peptide hFX-CP101–119
Format: biochemical

[1] = LOPAC compound at 20uM, plate 2, conversion of substrate peptide
[2] = LOPAC compound at 20uM, plate 2, normalised to DMSO and 2,4-PDCA controls
[3] = LOPAC compound at fixed 20 uM, plate 1, normalised to DMSO and 2,4-PDCA controls
[4] = LOPAC compound at fixed 20 uM, substrate conversion, plate 1
[5] = LOPAC compound at 20uM, plate 3, conversion of substrate peptide
[6] = LOPAC compound at 20uM, plate 2, normalised to DMSO and 2,4-PDCA controls, read-out: Plate 2 (% inhibition)
[7] = LOPAC Plate 4, compound at 20 uM
[8] = LOPAC Plate 4, compound at 20 uM, substrate conversion

Nc1nc(Cl)nc2c1ncn2[C@@H]1O[C@H](COP(=O)(O)OP(=O)(O)OP(=O)(O)O)C(O)C1O (stereo in doubt)
Plate 2 (% conversion) [1]: 11.93% | Plate 2 (% inhibition) [2]: 71.75%

Nc1ncnc2c1nc(Sc1ccc(Cl)cc1)n2C1OC2COP(=O)(O)OC2C1O (stereo in doubt) [8-(4-Chlorophenylthio)-cAMP sodium]
Plate 1 (% inhibition) [3]: -2.91% | Plate 1 (% conversion) [4]: 36.85%

CCCCC1(C2CCCC2)Cc2cc(OCC(=O)O)c(Cl)c(Cl)c2C1=O (stereo in doubt) [R(+)-Butylindazone]
Plate 2 (% conversion) [1]: 33.18% | Plate 2 (% inhibition) [2]: 8.29%

Cn1c(=O)c2[nH]c(-c3ccccc3)nc2n(C)c1=O [1,3-Dimethyl-8-phenylxanthine]
Plate 3 (% conversion) [5]: 35.64%

CCCn1c(=O)c2[nH]c(-c3ccc(S(=O)(=O)O)cc3)nc2n(CCC)c1=O [1,3-Dipropyl-8-p-sulfophenylxanthine]
Plate 1 (% inhibition) [3]: -2.36% | Plate 1 (% conversion) [4]: 36.66%

OC[C@H]1NC[C@@H](O)[C@@H]1O [1,4-Dideoxy-1,4-imino-D-arabinitol]
Plate 2 (% conversion) [1]: 35.43% | Plate 2 (% inhibition) [2]: 1.56%

Oc1cccc2c(O)nccc12 [1,5-Isoquinolinediol]
Plate 3 (% conversion) [5]: 40.11%

Cn1c(=O)[nH]c2ncn(C)c2c1=O [1,7-Dimethylxanthine]
Plate 2 (% conversion) [1]: 35.50% | inhibition at 20 µM [6]: 1.36%

NCCCCCCCCCCN [1,10-Diaminodecane]
Plate 2 (% conversion) [1]: 36.39% | inhibition at 20 µM [6]: -1.3%

O.c1cnc2c(c1)ccc1cccnc12 [1,10-Phenanthroline monohydrate, reference compound]
% conversion: 3.10% | inhibition at 20 µM: 97.8% | inhibition at 20 µM (read-out: Inhibition at 20 µM [%]): 97.8%

Cl.c1ccc2c(N3CCNCC3)cccc2c1 [1-(1-Naphthyl)piperazine hydrochloride]
% conversion: 30.74%

Nn1nnc2ccccc21 [1-Aminobenzotriazole]
Plate 1 (% inhibition) [3]: -4.79% | Plate 1 (% conversion) [4]: 37.48%

OC[C@H]1NC[C@H](O)[C@@H](O)[C@@H]1O [1-Deoxynojirimycin hydrochloride]
inhibition at 20 µM (read-out: Plate 2 (% inhibition)): 2.25%

Cl.Cl.Cn1cnc(CCN)c1 [1-Methylhistamine dihydrochloride]
Plate 3 (% conversion): 37.48%

Cn1ccnc1 [1-Methylimidazole]
Plate 3 (% conversion): 20.25%

S=C(Nc1ccccc1)Nc1nccs1 [1-Phenyl-3-(2-thiazolyl)-2-thiourea]
Plate 3 (% conversion): 40.98%

N=C(N)NC(=N)Nc1ccccc1 [1-Phenylbiguanide]
% inhibition [7]: 12.13% | % conversion [8]: 32.33%

FC(F)(F)c1ccccc1-n1ccnc1 [1-[2-(Trifluoromethyl)phenyl]imidazole]
% conversion [8]: 26.55%

c1ccc(-c2ccccn2)nc1 [2,2-Bipyridyl]
Plate 2 (% conversion): 27.94% | Plate 2 (% inhibition) (20 µM): 23.93%

CC(=O)C(C)=NO [2,3-Butanedione monoxime]
Plate 1 (% inhibition) [3]: -3.18% | Plate 1 (% conversion) [4]: 36.94%

CC(=O)C(C)=O [2,3-Butanedione]
Plate 2 (% conversion) [1]: 38.17% | inhibition at 20 µM [6]: -6.62%

COC1=C(OC)C(=O)c2ccccc2C1=O [2,3-Dimethoxy-1,4-naphthoquinone]
Plate 2 (% conversion): 33.76% | Plate 2 (% inhibition) (20 µM): 6.56%

Nc1ccn([C@H]2CC[C@@H](CO)O2)c(=O)n1 [2,3-dideoxycytidine]
Plate 2 (% conversion) [1]: 37.68% | Plate 2 (% inhibition) [2]: -5.15%

O=C(O)c1ccnc(C(=O)O)c1 [2,4-pyridinedicarboxylic acid]
Plate 2 (% inhibition) (100 uM 2,4-PDCA control wells (columns 1, 2), plate 2): 100.30% and 100.62% and 100.70% | % inhibition (LOPAC Plate 3, 100 uM 2,4-PDCA control wells (columns 1, 2)): 99.57% and 99.80% | Plate 1 (% inhibition) (plate 1): 100.60% and 99.95% and 100.29% | Plate 5 (% conversion), 2,4-PDCA control (plate 5, 100 uM 2,4-PDCA controls, plate columns 1, 2): 2.34%

Nc1nc(Cl)nc2c1ncn2[C@@H]1O[C@H](CO)[C@@H](O)[C@H]1O [2-Chloroadenosine]
Plate 1 (% inhibition) [3]: -4.87% | Plate 1 (% conversion) [4]: 37.51%

NCC(O)(CS(=O)(=O)O)c1ccc(Cl)cc1 (centres unmarked) [2-Hydroxysaclofen]
Plate 1 (% inhibition) [3]: -6.82% | Plate 1 (% conversion) [4]: 38.16%

Cc1[nH]c2ccc(O)cc2c1CCN.O=C(O)/C=C\C(=O)O [2-Methyl-5-hydroxytryptamine maleate]
Plate 3 (% conversion): 35.71%

Nc1nc(Nc2ccccc2)nc2c1ncn2[C@@H]1O[C@H](CO)[C@@H](O)[C@H]1O [2-Phenylaminoadenosine]
% inhibition [7]: -10.62% | % conversion [8]: 40.09%

COc1cc2c(cc1O)CC[C@@H]1[C@@H]2CC[C@]2(C)[C@@H](O)CC[C@@H]12 [2-methoxyestradiol]
Plate 3 (% conversion) [5]: 41.59%

O=c1oc(Cl)c(Cl)c2ccccc12 [3,4-Dichloroisocoumarin]
Plate 2 (% conversion): 29.65% | Plate 2 (% inhibition) [2]: 18.85%

O=C(O)Cc1ccc(O)c(O)c1 [3,4-Dihydroxyphenylacetic acid, reference compound]
inhibition at 20 µM (AspH activity, fixed compound concentration 20 μM, initial LOPAC screen, 0.5%v/v DMSO, read-out: Inhibition at 20 µM [%]): 98.6%

O=[N+]([O-])c1cc(O)c(O)c([N+](=O)[O-])c1 [3,5-Dinitrocatechol, reference compound]
Plate 2 (% conversion): 2.07% | Plate 2 (% inhibition) (20 µM): 101.20%

NCCCS(=O)(=O)O.[Na] [3-Amino-1-propanesulfonic acid sodium]
Plate 1 (% inhibition) [3]: -7.08% | Plate 1 (% conversion) [4]: 38.25%

N#CCCN.N#CCCN.O=C(O)/C=C/C(=O)O [3-Aminopropionitrile fumarate]
Plate 1 (% inhibition) [3]: 48.97% | Plate 1 (% conversion) [4]: 19.43%

NCCCP(=O)(O)O [3-Aminopropylphosphonic acid]
Plate 1 (% conversion): 37.53% | Plate 1 (% inhibition): -4.94%

Cc1cn([C@H]2C[C@H](N=[N+]=[N-])[C@@H](CO)O2)c(=O)[nH]c1=O [3-Azido-3-deoxythymidine]
Plate 1 (% inhibition) [3]: -7.24% | Plate 1 (% conversion) [4]: 38.30%

O=[N+]([O-])c1cccc2c(Br)n[nH]c12 [3-Bromo-7-nitroindazole]
Plate 1 (% inhibition) [3]: 1.81% | Plate 1 (% conversion) [4]: 35.26%

N[C@@H](Cc1ccc(O)c(I)c1)C(=O)O [3-Iodo-L-tyrosine]
Plate 3 (% conversion) [5]: 30.44%

CC(C)Cn1c(=O)n(C)c(=O)c2[nH]cnc21 [3-Isobutyl-1-methylxanthine]
Plate 3 (% conversion): 38.13%

Nc1c[n+](N2CCOCC2)no1.[Cl-] [3-Morpholinosydnonimine hydrochloride]
Plate 1 (% inhibition) [3]: 64.67% | Plate 1 (% conversion) [4]: 14.15%

O=C(O)CC[N+](=O)[O-] [3-Nitropropionic acid]
Plate 3 (% conversion): 32.27%
